# Test results reported in patent publication US20210290597A1, “METHOD OF TREATING A CONDITION ASSOCIATED WITH NEURODEGENERATION USING INHIBITORS OF OAT3” (Neuropore Therapies, Inc., priority 2018, published 2021).
# Where two headings read alike, the source gives them in different places.
# Columns and labels:
# OAT3 = molecular target: T1, OAT3 (Homo sapiens, UniProt Q8TCC7); assay: Further OAT3 uptake inhibition assay (Table 2); assay type: cell-based; settings: human, MDCK-II cells expressing human OAT3, probe 10 μM PAH (p-aminohippurate); compound 1 μM; PAH 10 μM; mean and SD of triplicate
# T1 construct: expressed in transfected cells; host or cells: MDCK-II
# T1 sequence (Q8TCC7 1-542): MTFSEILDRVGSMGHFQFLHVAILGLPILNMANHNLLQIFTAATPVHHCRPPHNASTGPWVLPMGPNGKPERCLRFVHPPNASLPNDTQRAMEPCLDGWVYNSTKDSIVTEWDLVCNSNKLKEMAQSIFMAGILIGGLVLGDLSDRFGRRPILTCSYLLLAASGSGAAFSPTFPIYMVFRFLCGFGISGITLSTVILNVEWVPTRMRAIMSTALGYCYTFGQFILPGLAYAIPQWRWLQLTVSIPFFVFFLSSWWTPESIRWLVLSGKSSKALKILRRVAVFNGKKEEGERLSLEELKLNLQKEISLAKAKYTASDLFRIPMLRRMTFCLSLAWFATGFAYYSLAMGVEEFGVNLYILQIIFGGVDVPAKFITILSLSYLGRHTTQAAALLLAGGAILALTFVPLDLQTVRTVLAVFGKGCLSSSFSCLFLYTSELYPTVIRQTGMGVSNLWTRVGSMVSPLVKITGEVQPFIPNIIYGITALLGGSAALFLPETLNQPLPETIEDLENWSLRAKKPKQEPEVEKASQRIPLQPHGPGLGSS
# Procedure: (§1) In a further assay, the effects of several other compounds (including compounds 2, 3, and 4) were assessed against OAT3. The assay was carried out using a similar procedure as described above, using para-aminohippurate (PAH) and estrone-3-sulfate (E3S) as the substrates for measuring OAT3-mediated transport. […] MDCK-II cells were grown in 96-well cell culture plates, and the cell plates are maintained at 37° C. in 5% CO2 atmosphere prior to initiation of the transport experiment. MDCK-II cells were maintained in DMEM with low glucose and 10% FBS. Cells passages up to 40 are seeded at 60K±10K cells/well on 96-well, transwell membrane plates approximately 24 hours before transfection. Transport assays were carried out approximately 48 hours after transfection. Radio-labeled para-aminohippurate ([3H]-PAH) and estrone-3-sulfate (E3S) were used as substrates for measuring OAT3-mediated transport, where the transport of the substrate was determined by radiometric detection. Probenecid was used as a reference inhibitor. Transport study samples were run in triplicate.
# (§2) For uptake assays, the net transporter-mediated uptake rate (V) of the substrate by each SLC transporter was calculated as follows:
# (§3) Transporter-mediated uptake rate(pmol/min/cm^2)=((Cellular accumulation in cells expressing the transporter)−(Mean cellular accumulation in control cells))/Incubation time.
# (§4) Percent inhibition was calculated by dividing the transporter-mediated uptake rate in presence of the test article or the reference inhibitor by the transporter-mediated uptake rate in presence of vehicle control:
# (§5) Percent inhibition=100−(100×(transporter-mediated uptake rate)with inhibitor/(transporter-mediated uptake rate)vehicle control)
# (§6) For uptake assays, statistical analyses using an unpaired t test was performed between transporter-mediated uptake rate or ATP-dependent transport rate of probe substrate with vehicle control and the inhibitor. A p value of <0.05 was considered statistically significant.
# (§7) Table 2 summarizes the inhibitory activity of these compounds against OAT3 in the uptake of probe substrate PAH (p-aminohippurate) or E3S (estrone-3-sulfate). The percent inhibition values were determined by testing compounds at a single concentration of 1 μM with a PAH concentration of 10 μM. Data represent the mean and standard deviation of triplicate samples. The IC50 values were calculated by means of a concentration response curve with a compound concentration range of 0.03-10 μM and a probe substrate concentration of 10 μM PAH or 0.1 μM E3S. The percent inhibition at the various concentrations was run in triplicate and the IC50 value was determined by non-linear regression using GraphPad Prism.
# human transporter OAT3 = molecular target: T2, human transporter OAT3 (Homo sapiens, UniProt Q8TCC7); assay: Further OAT3 uptake inhibition assay (Table 2); assay type: cell-based; settings: compound 0.03-10 μM
# T2 construct: expressed in transfected cells; host or cells: MDCK-II
# T2 sequence (Q8TCC7 1-542): T1 sequence (Q8TCC7 1-542)
# Procedure: as §1, §2, §3, §4, §5, §6, §7
# [1] = 0.1 μM E3S, read-out: OAT3 inhibition substrate = E3S (IC50)
# [2] = 10 μM PAH, read-out: OAT3 inhibition substrate = PAH (IC50)
inhibition at 1 μM (OAT3) [%],IC50 (human transporter OAT3; [1]) [µM],IC50 (human transporter OAT3; [2]) [µM],SMILES
58.6,,,"O=S(=O)(c1ccc(-n2cn[nH]c2=S)cc1)c1cccc(C(F)(F)F)c1 [Compound 11, 4-(4-((3-(trifluoromethyl)phenyl)sulfonyl)phenyl)-2,4-dihydro-3H-1,2,4-triazole-3-thione]"
33.1,,,"O=S(=O)(c1ccccc1)c1ccc(-n2cn[nH]c2=S)cc1 [Compound 3, 4-(4-(phenylsulfonyl)phenyl)-2,4-dihydro-3H-1,2,4-triazole-3-thione]"
-9.18,,,"O=c1[nH]ccn1-c1ccc(S(=O)(=O)c2ccc(Cl)c(C(F)(F)F)c2)cc1 [Compound 32, 1-(4-((4-chloro-3-(trifluoromethyl)phenyl)sulfonyl)phenyl)-1,3-dihydro-2H-imidazol-2-one]"
,> 30,> 30,CS(=O)(=O)N1CCN(Cc2nnc(Nc3ccc(S(=O)(=O)c4ccc(Cl)cc4)cc3)s2)CC1 [Compound X1]
-1.05,,,"O=S(=O)(c1ccc(-n2cc[nH]c2=S)cc1)c1ccc(Cl)c(C(F)(F)F)c1 [Compound 31, 1-(4-(4-chloro-3-(trifluoromethyl)phenylsulfonyl)phenyl)-1H-imidazole-2(3H)-thione]"
48.4,,,"COc1cccc(S(=O)(=O)c2ccc(-n3cn[nH]c3=S)cc2)c1 [Compound 12, 4-(4-((3-methoxyphenyl)sulfonyl)phenyl)-2,4-dihydro-3H-1,2,4-triazole-3-thione]"
9.78,8.63,7.67,"CSc1nncn1-c1ccc(S(=O)(=O)c2ccc(Cl)c(C(F)(F)F)c2)cc1 [Compound 26, 4-(4-((4-chloro-3-(trifluoromethyl)phenyl)sulfonyl)phenyl)-3-(methylthio)-4H-1,2,4-triazole]"
48,1.9,1.36,"O=S(=O)(c1ccc(-n2cn[nH]c2=S)c(N2CCOCC2)c1)c1ccc(Cl)c(C(F)(F)F)c1 [Compound 2, 4-(4-((4-chloro-3-(trifluoromethyl)phenyl)sulfonyl)-2-morpholinophenyl)-2,4-dihydro-3H-1,2,4-triazole-3-thione]"
94.1,,,"O=S(=O)(Nc1ccc(Cl)c(C(F)(F)F)c1)c1ccc(-n2cn[nH]c2=S)cc1 [Compound 33, N-(4-chloro-3-(trifluoromethyl)phenyl)-4-(5-thioxo-1H-1,2,4-triazol-4(5H)-yl)benzenesulfonamide]"
,> 30,> 30,Nc1ncc(-c2cc(N3CCOCC3)cc(S(=O)(=O)c3ccccc3)c2)cn1 [Compound X2]
48.2,,,"CCN(CC)c1cc(S(=O)(=O)c2ccc(Cl)c(C(F)(F)F)c2)ccc1-n1cn[nH]c1=S [Compound 21, 4-(4-((4-chloro-3-(trifluoromethyl)phenyl)sulfonyl)-2-(diethylamino)phenyl)-2,4-dihydro-3H-1,2,4-triazole-3-thione]"
86.3,,,"FC(F)(F)c1cc(Oc2ccc(-n3cn[nH]c3=S)cc2)ccc1Cl [Compound 30, 4-(4-(4-chloro-3-(trifluoromethyl)phenoxy)phenyl)-2,4-dihydro-3H-1,2,4-triazole-3-thione]"
43,,,"O=S(=O)(c1ccc(-n2cn[nH]c2=S)c(N2CCCCC2)c1)c1ccc(Cl)c(C(F)(F)F)c1 [Compound 19, 4-(4-((4-chloro-3-(trifluoromethyl)phenyl)sulfonyl)-2-(piperidin-1-yl)phenyl)-2,4-dihydro-3H-1,2,4-triazole-3-thione]"
79.5,,,"CCOCCOc1cc(S(=O)(=O)c2ccc(Cl)c(C(F)(F)F)c2)ccc1-n1cn[nH]c1=S [Compound 22, 4-(4-((4-chloro-3-(trifluoromethyl)phenyl)sulfonyl)-2-(2-ethoxyethoxy)phenyl)-2,4-dihydro-3H-1,2,4-triazole-3-thione]"
86.5,,,"Cc1cc(S(=O)(=O)c2ccc(-n3cn[nH]c3=S)cc2)ccc1Cl [Compound 5, 4-(4-((4-chloro-3-methylphenyl)sulfonyl)phenyl)-2,4-dihydro-3H-1,2,4-triazole-3-thione]"
76.3,,,"O=S(=O)(c1ccc(Cl)cc1)c1ccc(-n2cn[nH]c2=S)cc1 [Compound 4, 4-(4-((4-chlorophenyl)sulfonyl)phenyl)-2,4-dihydro-3H-1,2,4-triazole-3-thione]"
60.1,,,"CN(C)c1cccc(S(=O)(=O)c2ccc(-n3cn[nH]c3=S)cc2)c1 [Compound 15, 4-(4-((3-(dimethylamino)phenyl)sulfonyl)phenyl)-2,4-dihydro-3H-1,2,4-triazole-3-thione]"
17.2,,,"CN1CCN(c2cc(S(=O)(=O)c3ccc(Cl)c(C(F)(F)F)c3)ccc2-n2cn[nH]c2=S)CC1 [Compound 20, 4-(4-((4-chloro-3-(trifluoromethyl)phenyl)sulfonyl)-2-(4-methylpiperazin-1-yl)phenyl)-2,4-dihydro-3H-1,2,4-triazole-3-thione]"
